From patent US6372208B1, “Method of reducing an immune response to a recombinant virus” (The Trustees of the University of Pennsylvania, priority 1996, dated 2002)
Entries after “also recorded” stand apart in the source; their conditions may differ.

Legend:
H5.010CBlacZ = assay: Adenovirus-specific IgG and IgA in BAL by ELISA; assay type: in vivo, C57BL/6 mice; conditions: day 28, versus control mice
Procedure: Adenovirus-specific antibody isotype was determined in BAL by using an enzyme-linked immunosorbent assay (ELISA). Briefly, 96-well plates were coated with 100 μl of PBS containing 5×10^9 particles of H5.010CBlacZ for 18 hours at 4° C. The wells were washed 5 times with PBS. After blocking with 200 μl of 2% BSA in PBS, the plates were rinsed once with PBS and incubated with 1:10 diluted BAL samples for 90 minutes at 4° C. Thereafter, the wells were extensively washed and refilled with 100 μl of 1:1000 diluted ALP-conjugated anti-mouse IgG or IgA (Sigma). The plates were incubated, subsequently washed 5 times, and 100 μl of the substrate solution (p-nitrophenyl phosphate, PNPP) was added to each well. Substrate conversion was stopped by the addition of 50 μl of 0.1M EDTA, and reactions were read at 405 nm.
The results are shown graphically in FIGS. 1A through 1C, which summarize neutralizing antibody titer, and the relative amounts (OD405) of IgG and IgA present in BAL samples.

[1] = system: recombinant adenoviruses H5.010CBALP and H5.010CMVlacZ; assay: Lung-directed adenovirus gene transfer and readministration, transgene expression by histochemistry (Example 2); assay type: in vivo, C57BL/6 mice
Procedure: Female C57BL/6 mice (6˜8 week old) were infected with suspensions of H5.010CBALP (1×10^9 pfu in 50 μl of PBS) via the trachea at day 0 and similarly with H5.010CMVlacZ at day 28. One group of such mice was used as a control. Another group of mice were acutely depleted of CD4^+ cells by i.p. injection of antibody to CD4^+ cells (GK1.5; ATCC No. TIB207, 1:10 dilution of ascites) at the time of the initial gene therapy (days −3, 0, and +3). A third group of mice was injected with IL-12 (1 μg intratracheal or 2 μg, i.p. injections) at the time of the first administration of virus (days 0 and +1). A fourth group of mice was injected with gamma interferon. (1 μg intratracheal or 2 μg, i.p. injections) at the time of the first administration of virus (days 0 and +1).
When mice were subsequently euthanized and necropsied at days 3, 28, or 31, lung tissues were prepared for cryosections, while bronchial alveolar lavage (BAL) and mediastinal lymph nodes (MLN) were harvested for immunological assays.
The lung tissues were evaluated for ALP expression at day 3 and day 28 by histochemical staining following the procedures of Yang I, cited above. β-galactosidase expression was assayed at day 31 by X-gal histochemical staining. The results described below were obtained from the alkaline phosphatase histochemical stains (magnification ×100) or β-galactosidase X-gal stains (magnification ×100).

[2] = system: virus-infected C57SV cells; assay: CTL 51Cr release assay of restimulated splenocytes, IL-12 (Example 6B); assay type: cell-based, C57BL/6 mice; conditions: ALP virus, IL-12 i.p.; 51Cr release on virus-infected target cells
Procedure: B. Splenocytes harvested from C57BL/6 mice (“B6”) and IL-12-treated C57BL/6 mice (“B6+IL12”) of Example 5 were restimulated in vitro 10 days after administration of H5.010CBALP with H5.010CMVlacZ for 5 days in DMEM supplemented with 5% FBS and […] 2-mercaptoethanol. These cells were tested for specific lysis on mock-infected (“mock”) and H5.010CBALP (“ALP”)-infected C57SV cells in a 6 hour ^51Cr release assay performed subsequently using the following ratios of effector to target cells (c57SV, H-2^b) in 200 μl DMEM with 10% FBS in V-bottom 96-well plates (E:T=50:1, 25:1, 12:1, 6:1, 5:1 and 3:1).
Prior to mixing with the effector cells, target cells (1×10^6) were labeled with 100 μCi of ^51Cr after a 24 hr-infection with H5.010CMVlacZ at an moi of 50 and used at 5×10^3 cells/well. After incubation for 6 hr, aliquots of 100 μl supernatant were removed for counting in a gamma counter.

[3] = system: recombinant adenoviruses H5.010CMVlacZ and H5.010CBALP; assay: Tail vein adenovirus gene transfer to mouse liver and readministration (Example 4); assay type: in vivo, C57BL/6 mice; conditions: liver, second virus day 28, read day 31
Procedure: Recombinant virus (H5.010CMVLacZ or H5.010CBALP) was inactivated with ultraviolet light in the presence of 8-methoxypsoralen. Briefly, purified virus was resuspended in 0.33 mg/ml of 8-methoxypsoralen solution and exposed to a 365 nm UV light source on ice at 4 cm from the lamp filter for 30 min. The virus was then passed over a Sephadex G-50 column equilibrated with PBS. […] Suspensions of the viruses (2×10^9 pfu in 100 μl of PBS) were infused into the tail vein of 6 to 8 week old female mice as etailed in the following experiments. Each experiment was performed with a minimum of three mice in which transgene expression was quantified in a section of each of 5 lobes. The minimum analysis was 15 sections per experimental condition.
e. C57BL/6 mice were inoculated i.p. with 0.5 ml aliquots of 1:10 dilution of mouse ascites fluid containing the GK1.5 (anti-CD4 Mab, ATCC TIB207) at days −3, 0 and +3 as described in Example 2. This was equivalent to 100 μg of purified monoclonal antibody per injection. These CD4^+ cell-depleted mice were infected with H5.010CMVlacZ at day 0 and H5.010CBALP at day 28 (“CD4Ab mice”); and
f. […]
Mice from each group were subsequently euthanized and liver tissues evaluated for lacZ expression by X-gal histochemistry (magnification ×100) at day 3 and day 28; and for ALP expression by histochemical staining at day 31 (magnification ×100). […]

Substance: interleukin-12 [IL-12]
- IgG in BAL (H5.010CBlacZ): without significantly impacting on formation of IgG
- virus specific IgA in BAL (H5.010CBlacZ): selectively blocked secretion of antigen specific IgA
- transgene expression after first administration of virus (ALP) ([1]; lung, intratracheal, days 3 and 28): diminished after about one month
- gene transfer upon second administration of virus (lacZ) ([1]; lung, readministered day 28, read day 31): high level gene transfer to airway epithelial cells was achieved
- inflammation and transgene persistence following a second administration of virus ([1]; treatment at the time of intratracheal instillation of virus): did not enhance inflammation or diminish transgene persistence
- adenovirus-specific CTL activity [2]: did not increase adenovirus-specific CTL activity; also recorded: unaffected
- readministration of virus (gene transfer) [3]: insufficient to allow efficient gene transfer upon readministration of virus
